# Source: US10590140B2, “Tetrahydropyrimidodiazepine and dihydropyridodiazepine compounds for treating pain and pain related conditions” (ESTEVE PHARMACEUTICALS, S.A., priority 2016, dated 2020)
# Where two headings read alike, the source gives them in different places.
# Columns and labels:
# [1] = molecular target: human norepinephrine transporter (NET) (Homo sapiens (Human), UniProt P23975); test: Binding assay to human norepinephrine transporter (NET) ([3H]-Nisoxetin); settings: Table 2, dual compounds; [3H]-Nisoxetin binding
# Procedure: Binding Assay to Human Norepinephrine Transporter (NET).
# Human norepinephrine transporter (NET) enriched membranes (5 μg) were incubated with 5 nM of radiolabeled [3H]-Nisoxetin in assay buffer containing 50 mM Tris-HCl, 120 mM NaCl, 5 mM KCl, pH 7.4.
# NSB (non specific binding) was measured by adding 1 μM. After 60 min incubation at 4° C., binding reaction was terminated by filtering through Multiscreen GF/C (Millipore) presoaked in 0.5% polyethyleneimine in Vacuum Manifold Station, followed by 3 washes with ice-cold filtration buffer containing 50 mM Tris-HCl, 0.9% NaCl, pH 7.4.
# Filter plates were dried at 60° C. for 1 hour and 30 μl of scintillation cocktail were added to each well before radioactivity reading.
# [2] = molecular target: human α2δ-1 subunit of Cav2.2 calcium channel (Homo sapiens (Human), UniProt P54289); test: Binding assay to human α2δ-1 subunit of Cav2.2 calcium channel ([3H]-Gabapentin); settings: read-out: Ki (nM) α2δ-1
# Procedure, shortened: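 [3H]-gabapentin binding, 60 min at 27° C; nonspecific binding defined with 10 μM pregabalin. Terminated by filtration on PEI-presoaked GF/C filters, ice-cold 50 mM Tris-HCl pH 7.4 washes, then scintillation counting.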
# [3] = Table 2, dual compounds, [3H]-Gabapentin binding
# [4] = binding to α2δ-1, [3H]-Gabapentin
# Chain of human α2δ-1 subunit of Cav2.2 calcium channel (P54289 25-1103): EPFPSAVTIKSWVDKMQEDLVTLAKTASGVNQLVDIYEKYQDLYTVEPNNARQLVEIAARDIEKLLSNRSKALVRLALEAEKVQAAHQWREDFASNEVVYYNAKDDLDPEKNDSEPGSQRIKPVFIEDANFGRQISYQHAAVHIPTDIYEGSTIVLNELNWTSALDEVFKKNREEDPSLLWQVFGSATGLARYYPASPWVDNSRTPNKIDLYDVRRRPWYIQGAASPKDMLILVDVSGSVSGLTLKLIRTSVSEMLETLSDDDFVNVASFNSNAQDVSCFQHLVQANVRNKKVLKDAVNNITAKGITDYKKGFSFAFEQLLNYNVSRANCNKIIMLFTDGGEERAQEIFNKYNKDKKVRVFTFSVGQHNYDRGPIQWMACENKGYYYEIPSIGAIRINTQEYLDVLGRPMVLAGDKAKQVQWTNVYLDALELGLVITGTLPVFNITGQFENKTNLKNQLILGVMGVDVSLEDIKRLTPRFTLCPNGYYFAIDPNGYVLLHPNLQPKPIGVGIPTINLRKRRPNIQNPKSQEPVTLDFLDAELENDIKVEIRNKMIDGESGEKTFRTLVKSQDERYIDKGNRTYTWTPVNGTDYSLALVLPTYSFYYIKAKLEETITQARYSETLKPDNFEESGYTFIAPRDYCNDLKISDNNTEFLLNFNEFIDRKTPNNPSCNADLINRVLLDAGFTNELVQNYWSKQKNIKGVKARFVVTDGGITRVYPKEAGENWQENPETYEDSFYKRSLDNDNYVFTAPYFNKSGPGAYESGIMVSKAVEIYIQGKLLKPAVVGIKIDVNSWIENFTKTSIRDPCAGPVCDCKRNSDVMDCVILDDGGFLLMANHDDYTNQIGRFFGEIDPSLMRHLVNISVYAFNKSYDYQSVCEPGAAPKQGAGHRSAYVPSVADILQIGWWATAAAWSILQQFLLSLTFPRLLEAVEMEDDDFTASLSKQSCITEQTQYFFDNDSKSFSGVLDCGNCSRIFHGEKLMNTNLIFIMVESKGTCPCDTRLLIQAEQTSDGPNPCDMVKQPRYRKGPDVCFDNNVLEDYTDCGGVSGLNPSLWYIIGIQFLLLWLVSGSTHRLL
# Chain of human norepinephrine transporter (NET) (P23975 whole entry): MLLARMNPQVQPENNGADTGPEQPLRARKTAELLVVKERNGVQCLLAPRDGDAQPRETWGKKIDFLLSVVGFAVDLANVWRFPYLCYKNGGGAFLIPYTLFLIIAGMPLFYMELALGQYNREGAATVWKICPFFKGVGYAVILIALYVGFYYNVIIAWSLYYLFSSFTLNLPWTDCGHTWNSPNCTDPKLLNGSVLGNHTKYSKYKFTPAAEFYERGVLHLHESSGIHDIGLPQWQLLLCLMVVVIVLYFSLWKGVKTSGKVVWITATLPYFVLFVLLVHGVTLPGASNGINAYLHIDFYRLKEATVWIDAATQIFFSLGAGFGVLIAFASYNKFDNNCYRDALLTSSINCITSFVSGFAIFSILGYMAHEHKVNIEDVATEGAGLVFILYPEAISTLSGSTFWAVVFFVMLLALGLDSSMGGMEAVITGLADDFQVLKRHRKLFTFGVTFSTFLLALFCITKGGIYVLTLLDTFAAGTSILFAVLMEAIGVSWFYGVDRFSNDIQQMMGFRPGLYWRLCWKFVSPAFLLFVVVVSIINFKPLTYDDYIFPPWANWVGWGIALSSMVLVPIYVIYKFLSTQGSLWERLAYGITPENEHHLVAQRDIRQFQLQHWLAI
Compound,Ki [1],"Ki [2, 3]","Ki [2, 4]"
"CCNc1ncc2c(n1)N(C)CCN(c1cccc(-n3cc(CN(C)Cc4ccccn4)nn3)c1)C2=O [Example 288, 2-(ethylamino)-9-methyl-6-(3-(4-((methyl(pyridin-2-ylmethyl)amino)methyl)-1H-1,2,3-triazol-1-yl)phenyl)-6,7,8,9-tetrahydro-5H-pyrimido[4,5-e][1,4]diazepin-5-one]",100 to 500 nM,500 to 3000 nM,500 to 3000 nM
"CNCC[C@@H](OCc1cccc(N2CCN(C)c3nc(SC)ncc3C2=O)c1)c1cccs1 [Example 209, (R)-9-methyl-6-(3-((3-(methylamino)-1-(thiophen-2-yl)propoxy)methyl)phenyl)-2-(methylthio)-6,7,8,9-tetrahydro-5H-pyrimido[4,5-e][1,4]diazepin-5-one]",100 to 500 nM,100 to 500 nM,100 to 500 nM
"CCNc1ncc2c(n1)N(C)CCN(c1cccc(-n3cc(CN(C)Cc4ccccc4)nn3)c1)C2=O [Example 243, 6-(3-(4-((benzyl(methyl)amino)methyl)-1H-1,2,3-triazol-1-yl)phenyl)-2-(ethylamino)-9-methyl-6,7,8,9-tetrahydro-5H-pyrimido[4,5-e][1,4]diazepin-5-one]",< 100 nM,500 to 3000 nM,500 to 3000 nM
"CNCC[C@H](Oc1ccc(CN2CCN(C)c3ncncc3C2=O)cc1)c1ccccc1 [Example 433, (S)-9-methyl-6-(4-(3-(methylamino)-1-phenylpropoxy)benzyl)-6,7,8,9-tetrahydro-5H-pyrimido[4,5-e][1,4]diazepin-5-one]",< 100 nM,500 to 3000 nM,500 to 3000 nM
"CSc1ncc2c(n1)N(C)CCN(c1cccc(COC3(c4ccccc4)CCNCC3)c1)C2=O [Example 179, 9-methyl-2-(methylthio)-6-(3-(((4-phenylpiperidin-4-yl)oxy)methyl)phenyl)-6,7,8,9-tetrahydro-5H-pyrimido[4,5-e][1,4]diazepin-5-one]",> 1000 nM,> 3000 nM,> 3000 nM
"CCNc1ncc2c(n1)N(C)CCN(c1cccc(-n3cnc(CN(C)Cc4ccccc4)c3)c1)C2=O [Example 253, 6-(3-(4-((benzyl(methyl)amino)methyl)-1H-imidazol-1-yl)phenyl)-2-(ethylamino)-9-methyl-6,7,8,9-tetrahydro-5H-pyrimido[4,5-e][1,4]diazepin-5-one]",100 to 500 nM,100 to 500 nM,100 to 500 nM
"CNCC[C@H](Oc1cccc(N2CCN(C)c3nc(SC)ncc3C2=O)c1)c1ccccc1 [Example 153, (S)-9-methyl-6-(3-(3-(methylamino)-1-phenylpropoxy)phenyl)-2-(methylthio)-6,7,8,9-tetrahydro-5H-pyrimido[4,5-e][1,4]diazepin-5-one]",< 100 nM,> 3000 nM,> 3000 nM
"CNCC[C@H](OCc1cccc(N2CCN(C)c3nc(SC)ncc3C2=O)c1)c1ccccc1 [Example 165, (S)-9-methyl-6-(3-((3-(methylamino)-1-phenylpropoxy)methyl)phenyl)-2-(methylthio)-6,7,8,9-tetrahydro-5H-pyrimido[4,5-e][1,4]diazepin-5-one]",100 to 500 nM,> 3000 nM,> 3000 nM
"CCNc1ncc2c(n1)N(C)CCN(Cc1ccc(COC(CNC)c3ccccc3)cc1)C2=O (stereo not shown) [Example 413, 2-(ethylamino)-9-methyl-6-(4-((2-(methylamino)-1-phenylethoxy)methyl)benzyl)-6,7,8,9-tetrahydro-5H-pyrimido[4,5-e][1,4]diazepin-5-one]",100 to 500 nM,500 to 3000 nM,500 to 3000 nM
"CNCCC(OCc1ccc(N2CCN(C)c3nc(C)ncc3C2=O)cc1)c1ccccc1 (stereo not shown) [Example 353, 2,9-dimethyl-6-(4-((3-(methylamino)-1-phenylpropoxy)methyl)phenyl)-6,7,8,9-tetrahydro-5H-pyrimido[4,5-e][1,4]diazepin-5-one]",< 100 nM,> 3000 nM,> 3000 nM
"CCNc1ncc2c(n1)N(C)CCN(c1cccc(OC(CCNC)c3cccnc3)c1)C2=O (stereo not shown) [Example 194, 2-(ethylamino)-9-methyl-6-(3-(3-(methylamino)-1-(pyridin-3-yl)propoxy)phenyl)-6,7,8,9-tetrahydro-5H-pyrimido[4,5-e][1,4]diazepin-5-one]",> 1000 nM,500 to 3000 nM,500 to 3000 nM
"CCNc1ncc2c(n1)N(C)CCN(Cc1ccc(O[C@@H](CCNC)c3ccccc3)cc1)C2=O [Example 414, (S)-2-(ethylamino)-9-methyl-6-(4-(3-(methylamino)-1-phenylpropoxy)benzyl)-6,7,8,9-tetrahydro-5H-pyrimido[4,5-e][1,4]diazepin-5-one]",< 100 nM,500 to 3000 nM,500 to 3000 nM
"CCNc1cc2c(cn1)C(=O)N(c1cccc(COC(CCNC)c3ccccc3)c1)CCN2C (stereo not shown) [Example 199, 8-(ethylamino)-1-methyl-4-(3-((3-(methylamino)-1-phenylpropoxy)methyl)phenyl)-1,2,3,4-tetrahydro-5H-pyrido[4,3-e][1,4]diazepin-5-one]",> 1000 nM,500 to 3000 nM,500 to 3000 nM
"CCNc1ncc2c(n1)N(C)CCN(c1cccc(-n3cc(CNC)cn3)c1)C2=O [Example 185, 2-(ethylamino)-9-methyl-6-(3-(4-((methylamino)methyl)-1H-pyrazol-1-yl)phenyl)-6,7,8,9-tetrahydro-5H-pyrimido[4,5-e][1,4]diazepin-5-one]",,,100 to 500 nM
"CCNc1ncc2c(n1)N(C)CCN(c1cccc(O[C@H](CCN(C)C(=O)OC(C)(C)C)c3cccs3)c1)C2=O [Example 81, tert-butyl (R)-(3-(3-(2-(ethylamino)-9-methyl-5-oxo-5,7,8,9-tetrahydro-6H-pyrimido[4,5-e][1,4]diazepin-6-yl)phenoxy)-3-(thiophen-2-yl)propyl)(methyl) carbamate]",,,> 3000 nM
"CCNc1ncc2c(n1)N(C)CCN(c1cccc(-n3cc(CCN(C)CCc4ccccc4)nn3)c1)C2=O [Example 249, 2-(ethylamino)-9-methyl-6-(3-(4-(2-(methyl(phenethyl)amino)ethyl)-1H-1,2,3-triazol-1-yl)phenyl)-6,7,8,9-tetrahydro-5H-pyrimido[4,5-e][1,4]diazepin-5-one]",,,100 to 500 nM
"CSc1ncc2c(n1)N(C)CCN(c1cccc(OC(C)CN(C)C(=O)OC(C)(C)C)c1)C2=O (stereo not shown) [Example 6, tert-butyl methyl(2-(3-(9-methyl-2-(methylthio)-5-oxo-5,7,8,9-tetrahydro-6H-pyrimido[4,5-e][1,4]diazepin-6-yl)phenoxy)propyl) carbamate]",,,> 3000 nM
"CCNc1ncc2c(n1)N(C)CCN(c1cccc(-n3cc(CNC)nn3)c1)C2=O [Example 180, 2-(ethylamino)-9-methyl-6-(3-(4-((methylamino)methyl)-1H-1,2,3-triazol-1-yl)phenyl)-6,7,8,9-tetrahydro-5H-pyrimido[4,5-e][1,4]diazepin-5-one]",,,100 to 500 nM
"CNCCC(Oc1ccc(CN2CCN(C)c3nc(OC)ncc3C2=O)cc1)c1ccccc1F (stereo not shown) [Example 376, 6-(4-(1-(2-fluorophenyl)-3-(methylamino)propoxy)benzyl)-2-methoxy-9-methyl-6,7,8,9-tetrahydro-5H-pyrimido[4,5-e][1,4]diazepin-5-one]",,,500 to 3000 nM
"CCNc1ncc2c(n1)N(C)CCN(c1cccc(CCCN(C)C(=O)OC(C)(C)C)c1)C2=O [Example 91, tert-butyl (3-(3-(2-(ethylamino)-9-methyl-5-oxo-5,7,8,9-tetrahydro-6H-pyrimido[4,5-e][1,4]diazepin-6-yl)phenyl)propyl) (methyl)carbamate]",,,> 3000 nM
"CCNc1ncc2c(n1)N(C)CCN(c1cccc(OC(CCN(C)C(=O)OC(C)(C)C)c3cccs3)c1)C2=O (stereo not shown) [Example 80, tert-butyl (3-(3-(2-(ethylamino)-9-methyl-5-oxo-5,7,8,9-tetrahydro-6H-pyrimido[4,5-e][1,4]diazepin-6-yl)phenoxy)-3-(thiophen-2-yl)propyl)(methyl) carbamate]",,,> 3000 nM
"CCNc1ncc2c(n1)N(C)CCN(c1cccc(C3CCNCC3)c1)C2=O [Example 235, 2-(Ethylamino)-9-methyl-6-(3-(piperidin-4-yl)phenyl)-6,7,8,9-tetrahydro-5H-pyrimido[4,5-e][1,4]diazepin-5-one]",,,100 to 500 nM
"Cc1nnc(-c2cccc(N3CCN(C)c4nc(N(C)Cc5ccccn5)ncc4C3=O)c2)o1 [Example 106, 9-methyl-2-(methyl (pyridin-2-ylmethyl)amino)-6-(3-(5-methyl-1,3,4-oxadiazol-2-yl)phenyl)-6,7,8,9-tetrahydro-5H-pyrimido[4,5-e][1,4]diazepin-5-one]",,,> 3000 nM
"CSc1ncc2c(n1)N(C)CCN(c1cccc(-c3nnc(C)o3)c1)C2=O [Example 29, 9-methyl-6-(3-(5-methyl-1,3,4-oxadiazol-2-yl)phenyl)-2-(methylthio)-6,7,8,9-tetrahydro-5H-pyrimido[4,5-e][1,4]diazepin-5-one]",,,> 3000 nM
"CCNc1ncc2c(n1)N(C)CCN(c1cccc(C(=O)OC)c1)C2=O [Example 309, methyl 3-(2-(ethylamino)-9-methyl-5-oxo-5,7,8,9-tetrahydro-6H-pyrimido[4,5-e][1,4]diazepin-6-yl)benzoate]",,,100 to 500 nM
"CCNc1ncc2c(n1)N(C)CCN(c1cccc(OC(C)CN(C)CCc3ccccc3)c1)C2=O (stereo not shown) [Example 263, 2-(ethylamino)-9-methyl-6-(3-((1-(methyl(phenethyl)amino)propan-2-yl)oxy)phenyl)-6,7,8,9-tetrahydro-5H-pyrimido[4,5-e][1,4]diazepin-5-one]",,,500 to 3000 nM
